Molecular target: T1, human GPR17 receptor (Homo sapiens, UniProt Q13304)
T1 construct: host or cells: HEK-293
Experiment: Calcium mobilization functional assay (Fluo-8, FLIPR TETRA) in HEK-293 hGPR17 (Gα-q assay)
Assay type: cell-based
Conditions: antagonism of MDL29,951 (~EC80) induced Ca2+ signal; cell line (HEK-293 hGPR17 or HEK-293 Suchi5 hGPR17) not given
How it was run: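 Fluo-8-loaded HEK-293 hGPR17 cells (60 min dye loading, room temperature) were preincubated with compound for twenty minutes, then challenged with agonist MDL29,951 at ~EC80, 500 nM. Intracellular calcium release via Gα-q was recorded as FLIPR fluorescence for a further 2 minutes; compounds tested in duplicate.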

T1 sequence (Q13304 whole entry): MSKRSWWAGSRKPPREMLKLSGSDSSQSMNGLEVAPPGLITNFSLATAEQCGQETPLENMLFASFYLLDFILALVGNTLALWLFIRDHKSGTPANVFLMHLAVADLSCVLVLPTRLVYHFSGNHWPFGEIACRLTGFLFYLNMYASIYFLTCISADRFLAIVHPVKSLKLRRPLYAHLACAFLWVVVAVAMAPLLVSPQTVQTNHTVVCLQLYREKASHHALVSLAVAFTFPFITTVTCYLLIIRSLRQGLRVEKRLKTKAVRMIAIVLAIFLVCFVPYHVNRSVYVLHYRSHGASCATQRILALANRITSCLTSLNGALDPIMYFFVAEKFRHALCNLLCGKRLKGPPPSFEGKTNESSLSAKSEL

SMILES	IC50 [nM]
Cc1ccc(-c2cc(S(=O)(=O)Nc3ccc(C#N)cc3F)c[nH]2)nc1 [Cpd 500, N-(4-cyano-2-fluorophenyl)-5-(5-methylpyridin-2-yl)-1H-pyrrole-3-sulfonamide]	5000 to 50000
N#Cc1ccc(NS(=O)(=O)c2c[nH]c(-c3ccncc3)c2)c(F)c1 [Cpd 024, N-(4-cyano-2-fluoro-phenyl)-5-(4-pyridyl)-1H-pyrrole-3-sulfonamide]	5000 to 50000
O=S(=O)(Nc1cc(F)c(C(F)(F)F)cc1F)c1c[nH]c(-c2cnsc2)c1 [Cpd 559, N-[2,5-difluoro-4-(trifluoromethyl)phenyl]-5-(1,2-thiazol-4-yl)-1H-pyrrole-3-sulfonamide]	< 500
COc1ccc(F)c(-c2cc(S(=O)(=O)Nc3ccc(C#N)cc3F)c[nH]2)c1 [Cpd 084, N-(4-cyano-2-fluoro-phenyl)-5-(2-fluoro-5-methoxy-phenyl)-1H-pyrrole-3-sulfonamide]	< 500
O=S(=O)(Nc1cc(F)c(C(F)(F)F)cc1F)c1c[nH]c(-c2ccccc2OC(F)(F)F)c1 [Cpd 589, N-[2,5-difluoro-4-(trifluoromethyl)phenyl]-5-[2-(trifluoromethoxy)phenyl]-1H-pyrrole-3-sulfonamide]	500 to 5000
O=S(=O)(Nc1cc(F)c(C(F)(F)F)cc1F)c1c[nH]c(-c2csc(Cl)c2)c1 [Cpd 458, 5-(5-chlorothiophen-3-yl)-N-[2,5-difluoro-4-(trifluoromethyl)phenyl]-1H-pyrrole-3-sulfonamide]	500 to 5000
N#Cc1ccc(NS(=O)(=O)c2c[nH]c(-c3ncccc3Br)c2)c(F)c1 [Cpd 350, 5-(3-bromo-2-pyridyl)-N-(4-cyano-2-fluoro-phenyl)-1H-pyrrole-3-sulfonamide]	< 500
N#Cc1cc(F)c(NS(=O)(=O)c2c[nH]c(-c3ccccn3)c2)c(F)c1 [Cpd 354, N-(4-cyano-2,6-difluoro-phenyl)-5-(2-pyridyl)-1H-pyrrole-3-sulfonamide]	500 to 5000
COc1nc(Br)cnc1NS(=O)(=O)c1c[nH]c(-c2ccccc2)c1 [Cpd 435, N-(5-bromo-3-methoxypyrazin-2-yl)-5-phenyl-1H-pyrrole-3-sulfonamide]	500 to 5000
COc1ccnc(F)c1-c1cc(S(=O)(=O)Nc2cc(F)c(C(F)(F)F)cc2F)c[nH]1 [Cpd 247, N-[2,5-difluoro-4-(trifluoromethyl)phenyl]-5-(2-fluoro-4-methoxy-3-pyridyl)-1H-pyrrole-3-sulfonamide]	500 to 5000
Cc1cc(-c2c[nH]cc2S(=O)(=O)Nc2ccc(C#N)cc2F)cs1 [Cpd 401, N-(4-cyano-2-fluorophenyl)-4-(5-methylthiophen-3-yl)-1H-pyrrole-3-sulfonamide]	< 500
O=S(=O)(Nc1cc(F)c(OC(F)F)cc1F)c1c[nH]c(-c2ccccc2Cl)c1 [Cpd 526, 5-(2-chlorophenyl)-N-[4-(difluoromethoxy)-2,5-difluorophenyl]-1H-pyrrole-3-sulfonamide]	500 to 5000
Cc1ccc(-c2c[nH]cc2S(=O)(=O)Nc2ccc(C#N)cc2F)s1 [Cpd 420, N-(4-cyano-2-fluorophenyl)-4-(5-methylthiophen-2-yl)-1H-pyrrole-3-sulfonamide]	< 500
N#Cc1cc(F)c(NS(=O)(=O)c2c[nH]c(-c3c(F)cc(F)cc3F)c2)cc1Cl [Cpd 492, N-(5-chloro-4-cyano-2-fluorophenyl)-5-(2,4,6-trifluorophenyl)-1H-pyrrole-3-sulfonamide]	500 to 5000
N#Cc1cnc(NS(=O)(=O)c2c[nH]c(-c3ccccc3)c2)s1 [Cpd 631, N-(5-cyano-1,3-thiazol-2-yl)-5-phenyl-1H-pyrrole-3-sulfonamide]	500 to 5000
O=S(=O)(Nc1ncc(OC(F)F)cc1F)c1c[nH]c(-c2ccccc2)c1 [Cpd 408, N-[5-(difluoromethoxy)-3-fluoropyridin-2-yl]-5-phenyl-1H-pyrrole-3-sulfonamide]	500 to 5000
N#Cc1ccc(NS(=O)(=O)c2c[nH]c(-c3ccccc3)c2)c(F)c1 [Cpd 002, N-(4-cyano-2-fluorophenyl)-5-phenyl-1H-pyrrole-3-sulfonamide]	< 500
N#Cc1ccc(NS(=O)(=O)c2c[nH]c(-c3ncccc3CF)c2)c(F)c1 [Cpd 592, N-(4-cyano-2-fluorophenyl)-5-[3-(fluoromethyl)pyridin-2-yl]-1H-pyrrole-3-sulfonamide]	500 to 5000
O=S(=O)(Nc1cc(F)c(F)cc1F)c1c[nH]c(-c2cccc(F)c2)c1 [Cpd 110, 5-(3-fluorophenyl)-N-(2,4,5-trifluorophenyl)-1H-pyrrole-3-sulfonamide]	500 to 5000
N#Cc1cc(F)c(NS(=O)(=O)c2c[nH]c(-c3ncc(Cl)s3)c2)cc1F [Cpd 648, 5-(5-chloro-1,3-thiazol-2-yl)-N-(4-cyano-2,5-difluorophenyl)-1H-pyrrole-3-sulfonamide]	< 500
N#Cc1ccc(NS(=O)(=O)c2c[nH]cc2C2=CCCC2)c(F)c1 [Cpd 238, N-(4-cyano-2-fluorophenyl)-4-(cyclopent-1-en-1-yl)-1H-pyrrole-3-sulfonamide]	< 500

SMILES	IC50 [nM]
O=S(=O)(Nc1cc(F)c(C(F)(F)F)cc1F)c1c[nH]cc1Cc1cccc(F)c1 [Cpd 481, N-[2,5-difluoro-4-(trifluoromethyl)phenyl]-4-[(3-fluorophenyl)methyl]-1H-pyrrole-3-sulfonamide]	500 to 5000
O=S(=O)(Nc1cc(F)c(OC(F)F)cc1F)c1c[nH]c(-c2ccccc2F)c1 [Cpd 409, N-[4-(difluoromethoxy)-2,5-difluorophenyl]-5-(2-fluorophenyl)-1H-pyrrole-3-sulfonamide]	< 500
N#Cc1ccc(NS(=O)(=O)c2c[nH]cc2Cc2ccncc2)c(F)c1 [Cpd 624, N-(4-cyano-2-fluorophenyl)-4-(pyridin-4-ylmethyl)-1H-pyrrole-3-sulfonamide]	500 to 5000
O=S(=O)(Nc1cc(C(F)(F)F)ccn1)c1c[nH]c(-c2ccccc2)c1 [Cpd 139, 5-phenyl-N-[4-(trifluoromethyl)-2-pyridyl]-1H-pyrrole-3-sulfonamide]	500 to 5000
N#Cc1cccc(Cc2c[nH]cc2S(=O)(=O)Nc2cc(F)c(C(F)(F)F)cc2F)c1 [Cpd 574, 4-[(3-cyanophenyl)methyl]-N-[2,5-difluoro-4-(trifluoromethyl)phenyl]-1H-pyrrole-3-sulfonamide]	500 to 5000
N#Cc1cc(F)c(NS(=O)(=O)c2c[nH]c(-c3cc(Cl)ccc3F)c2)cc1Cl [Cpd 523, N-(5-chloro-4-cyano-2-fluorophenyl)-5-(5-chloro-2-fluorophenyl)-1H-pyrrole-3-sulfonamide]	< 500
O=S(=O)(Nc1ccc(Cl)cc1F)c1c[nH]c(-c2ccccc2F)c1 [Cpd 052, N-(4-chloro-2-fluoro-phenyl)-5-(2-fluorophenyl)-1H-pyrrole-3-sulfonamide]	500 to 5000
O=S(=O)(Nc1cc(F)c(C(F)(F)F)cc1F)c1c[nH]c(-c2ncccc2Br)c1 [Cpd 346, 5-(3-bromo-2-pyridyl)-N-[2,5-difluoro-4-(trifluoromethyl)phenyl]-1H-pyrrole-3-sulfonamide]	< 500
COc1c(Cl)cccc1-c1cc(S(=O)(=O)Nc2ccc(C#N)cc2F)c[nH]1 [Cpd 394, 5-(3-chloro-2-methoxyphenyl)-N-(4-cyano-2-fluorophenyl)-1H-pyrrole-3-sulfonamide]	< 500
N#CCOc1cc(F)c(NS(=O)(=O)c2c[nH]c(-c3ccccc3Cl)c2)cc1F [Cpd 459, 5-(2-chlorophenyl)-N-[4-(cyanomethoxy)-2,5-difluorophenyl]-1H-pyrrole-3-sulfonamide]	< 500
O=S(=O)(Nc1cc(F)c(C(F)(F)F)cc1F)c1c[nH]c(-c2c(F)cccc2Cl)c1 [Cpd 363, 5-(2-chloro-6-fluoro-phenyl)-N-[2,5-difluoro-4-(trifluoromethyl)phenyl]-1H-pyrrole-3-sulfonamide]	500 to 5000
N#Cc1ccc(NS(=O)(=O)c2c[nH]c(-c3ccccc3C#N)c2)c(F)c1 [Cpd 106, N-(4-cyano-2-fluoro-phenyl)-5-(2-cyanophenyl)-1H-pyrrole-3-sulfonamide]	500 to 5000
N#Cc1ccc(NS(=O)(=O)c2c[nH]cc2Cc2cccc(C(F)(F)F)c2)c(F)c1 [Cpd 307, N-(4-cyano-2-fluoro-phenyl)-4-[[3-(trifluoromethyl)phenyl]methyl]-1H-pyrrole-3-sulfonamide]	500 to 5000
O=S(=O)(Nc1cc(F)c(C(F)(F)F)cc1F)c1c[nH]cc1Cc1cccs1 [Cpd 418, N-[2,5-difluoro-4-(trifluoromethyl)phenyl]-4-(thiophen-2-ylmethyl)-1H-pyrrole-3-sulfonamide]	< 500
O=S(=O)(Nc1ccc(OC(F)F)cc1F)c1c[nH]c(-c2ccccn2)c1 [Cpd 239, N-[4-(difluoromethoxy)-2-fluoro-phenyl]-5-(2-pyridyl)-1H-pyrrole-3-sulfonamide]	500 to 5000
N#Cc1cc(F)c(NS(=O)(=O)c2c[nH]cc2Cc2ccccc2)cc1F [Cpd 407, 4-benzyl-N-(4-cyano-2,5-difluorophenyl)-1H-pyrrole-3-sulfonamide]	< 500
CCc1cc(NS(=O)(=O)c2c[nH]c(-c3ccccc3)c2)c(F)cc1C#N [Cpd 529, N-(4-cyano-5-ethyl-2-fluorophenyl)-5-phenyl-1H-pyrrole-3-sulfonamide]	< 500
N#Cc1ccc(NS(=O)(=O)c2c[nH]c(-c3ccccc3OC(F)(F)F)c2)c(F)c1 [Cpd 587, N-(4-cyano-2-fluorophenyl)-5-[2-(trifluoromethoxy)phenyl]-1H-pyrrole-3-sulfonamide]	500 to 5000
COc1cscc1-c1cc(S(=O)(=O)Nc2cc(F)c(C(F)(F)F)cc2F)c[nH]1 [Cpd 518, N-[2,5-difluoro-4-(trifluoromethyl)phenyl]-5-(4-methoxythiophen-3-yl)-1H-pyrrole-3-sulfonamide]	500 to 5000
O=S(=O)(Nc1cc(F)c(OC(F)F)cc1F)c1c[nH]c(-c2ccoc2)c1 [Cpd 474, N-[4-(difluoromethoxy)-2,5-difluorophenyl]-5-(furan-3-yl)-1H-pyrrole-3-sulfonamide]	< 500

— US20240299385A1 (ReWind Therapeutics NV, priority 2021, published 2024)
